Laboratory results: US20150202243A1, “HDC Activation Inhibitor, HDC Activation Inhibition Composition, Antipruritic Agent, and Antipruritic Agent Composition” (HOYU CO., LTD., priority 2012, published 2015)
Where a name gives a salt, the structure may show the parent alone.

Test system: SL-induced scratching behavior in mice
Experiment: Inhibitory effect against sodium laurate-induced scratching behavior in mice
Format: in vivo, male ICR mice
Conditions: topical; for (b) average percentage of the number of scratches for 60 minutes relative to solvent control group taken as 100% / (a) mean plus/minus standard deviation of the number of scratches for 60 minutes: 10% SL 50 μL on rostral back, 90 min later 50 μL of 2.5% by mass test substance in 50% ethanol; for (a) mean plus/minus standard deviation of the number of scratches for 60 minutes: solvent control 80±2; for judgment of effectiveness as HDC activation inhibitor (antipruritic agent); effective if number of scratches is 80% or less of solvent control: 10% SL, 2.5% by mass test substance in 50% ethanol
Procedure: Test substances were evaluated for their HDC activation inhibitor (antipruritic agent) effect on the basis of their inhibitory effect on mice's scratching behavior induced by irritation with SL. The test substances used were apigenin, luteolin, sterubin, prunetin, tannic acid, chlorogenic acid, resveratrol, diphenhydramine hydrochloride, and d-chlorpheniramine maleate. Among these substances, diphenhydramine hydrochloride and d-chlorpheniramine maleate were conventionally known as antihistamic agents and served as comparative test substances.
Procedure: the test animals used were male ICR mice aged 7-8 weeks. At least 3 days before the test was conducted, the mice were shaved over a 6 cm^2 (2×3 cm) area on the rostral back.
The mice were divided into test substance group (n=3 or 4) and solvent control group (n=3). Fifty microliters of a 10% SL aqueous solution was applied to the rostral back of the mice to induce the mice's scratching behavior. Ninety minutes after the application of the SL solution, fifty microliters of a solution prepared with 50% ethanol to give a test substance concentration of 2.5% by mass was applied to the rostral back of the mice of the test substance group, and fifty microliters of 50% ethanol alone was applied to that of the solvent control group. The scratching behavior in the mice was evaluated by the following procedure.
More specifically, the mice treated as above were housed in acrylic cages (26×18×30 cm) divided into 4 sections, one mouse per section, and after the mice were acclimated for at least 30 minutes in an unattended environment, the behavior of the mice was recorded on video for 60 minutes. The recorded video was reviewed to check for the scratching behavior of the mice and visually count the number of a series of scratching behaviors which consist of an animal scratching the rostral back with a posterior leg and putting down the leg. Additionally, in the untreated group (n=4), the mice shaved on the rostral back but not treated with any of a SL solution, a test substance or 50% ethanol were evaluated for their scratching behavior by the same procedure.
According to these evaluation results, the number of scratches for 60 minutes is about 80 to 90 times in the solvent control, diphenhydramine hydrochloride, and d-chlorpheniramine maleate groups, while that number is about 40 times or less in all the test substance groups from apigenin to resveratrol. Regarding the inhibitory effect of the test substances on the number of scratches in mice, a possible criterion for judgment is that a test substance be judged to be effective as the HDC activation inhibitor (antipruritic agent) of the present invention if the number of scratches in the test substance group is 80% or less of that in the solvent control group.
In addition, with regard to FIG. 4, the values of the following two variables are listed below for each group: (a) the mean plus/minus standard deviation of the number of scratches for 60 minutes, and (b) the average value for the percentage of the number of scratches for 60 minutes in each group relative to that in the solvent control group which is taken as 100%.

SMILES | (b) average percentage of the number of scratches for 60 minutes relative to solvent control group taken as 100% [%] | (a) mean plus/minus standard deviation of the number of scratches for 60 minutes | judgment of effectiveness as HDC activation inhibitor (antipruritic agent); effective if number of scratches is 80% or less of solvent control
O=c1cc(-c2ccc(O)cc2)oc2cc(O)cc(O)c12 [Apigenin, apigenin] | 40.5 | 32±5 | –
O=C(OC[C@H]1O[C@@H](OC(=O)c2cc(O)c(O)c(OC(=O)c3cc(O)c(O)c(O)c3)c2)[C@H](OC(=O)c2cc(O)c(O)c(OC(=O)c3cc(O)c(O)c(O)c3)c2)[C@@H](OC(=O)c2cc(O)c(O)c(OC(=O)c3cc(O)c(O)c(O)c3)c2)[C@@H]1OC(=O)c1cc(O)c(O)c(OC(=O)c2cc(O)c(O)c(O)c2)c1)c1cc(O)c(O)c(OC(=O)c2cc(O)c(O)c(O)c2)c1 [Tannic acid, tannic acid] | 53.7 | 43±22 | –
COc1cc(O)c2c(c1)O[C@H](c1ccc(O)c(O)c1)CC2=O [Sterubin, sterubin] | 44.4 | 35±14 | –
Oc1ccc(/C=C/c2cc(O)cc(O)c2)cc1 [Resveratrol, 3,5,4′-trihydroxy-trans-stilbene] | 31.7 | 25±14 | –
COc1cc(O)c2c(=O)c(-c3ccc(O)cc3)coc2c1 [Prunetin, prunetin] | 52.7 | 42±11 | –
CN(C)CC[C@@H](c1ccc(Cl)cc1)c1ccccn1.O=C(O)/C=C\C(=O)O [D-chlorpheniramine maleate, d-chlorpheniramine maleate, reference compound] | 113.6 | 91±28 | not certain
O=C(/C=C/c1ccc(O)c(O)c1)O[C@@H]1C[C@](O)(C(=O)O)C[C@@H](O)[C@H]1O [Chlorogenic acid, chlorogenic acid] | 50.8 | 41±8 | –
CN(C)CCOC(c1ccccc1)c1ccccc1 [Diphenhydramine hydrochloride, diphenhydramine hydrochloride, reference compound] | 93.8 | 75±25 | not certain
O=c1cc(-c2ccc(O)c(O)c2)oc2cc(O)cc(O)c12 [Luteolin, luteolin] | 43.0 | 34±3 | –
